Measured values as given in PubChem BioAssay (NCI).
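Grown in 96-well plates, cells were treated for 48 hours with each compound at five concentrations. Insufficient inhibition: endpoint recorded as highest concentration tested. GI50 is the concentration that inhibits growth by half. TGI: concentration producing complete growth inhibition.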

Experiments:
Assay in all cases: NCI tumour cell line growth inhibition, 48 h
NCI-H226 lung = system: NCI-H226 lung
NCI-H23 lung = system: NCI-H23 lung
NCI-H460 lung = system: NCI-H460 lung
NCI-H522 lung = system: NCI-H522 lung
NCI/ADR-RES ovarian = system: NCI/ADR-RES ovarian
OVCAR-3 ovarian = system: OVCAR-3 ovarian
OVCAR-4 ovarian = system: OVCAR-4 ovarian
OVCAR-5 ovarian = system: OVCAR-5 ovarian
OVCAR-8 ovarian = system: OVCAR-8 ovarian
PC-3 prostate = system: PC-3 prostate
RPMI-8226 leukemia = system: RPMI-8226 leukemia
RXF 393 renal = system: RXF 393 renal
SF-268 CNS = system: SF-268 CNS
SF-295 CNS = system: SF-295 CNS
SF-539 CNS = system: SF-539 CNS
SK-MEL-2 melanoma = system: SK-MEL-2 melanoma
SK-MEL-28 melanoma = system: SK-MEL-28 melanoma
SK-MEL-5 melanoma = system: SK-MEL-5 melanoma
SK-OV-3 ovarian = system: SK-OV-3 ovarian
SN12C renal = system: SN12C renal
SNB-19 CNS = system: SNB-19 CNS
SNB-75 CNS = system: SNB-75 CNS
SR leukemia = system: SR leukemia
SW-620 colon = system: SW-620 colon
T-47D breast = system: T-47D breast
TK-10 renal = system: TK-10 renal
U251 CNS = system: U251 CNS
UACC-257 melanoma = system: UACC-257 melanoma
UACC-62 melanoma = system: UACC-62 melanoma
UO-31 renal = system: UO-31 renal

Q: What does the source list for `CCN1CCN(c2ccc(NC(=O)Nc3ccc(-c4cc(C(=O)NC)c5ncccc5n4)cc3)cc2C(F)(F)F)CC1`?
A: TGI (NCI-H226 lung): 6.36 µM; GI50 (NCI-H23 lung): 2.68 µM; TGI (NCI-H23 lung): 5.68 µM; GI50 (NCI-H460 lung): 0.664 µM; TGI (NCI-H460 lung): 2.92 µM; GI50 (NCI-H522 lung): 3.23 µM; TGI (NCI-H522 lung): 6.4 µM; GI50 (NCI/ADR-RES ovarian): 1.78 µM; TGI (NCI/ADR-RES ovarian): 8.09 µM; GI50 (OVCAR-3 ovarian): 2.55 µM; TGI (OVCAR-3 ovarian): 5.06 µM; GI50 (OVCAR-4 ovarian): 2.63 µM; TGI (OVCAR-4 ovarian): 5.64 µM; GI50 (OVCAR-5 ovarian): 2.82 µM; TGI (OVCAR-5 ovarian): 5.23 µM; GI50 (OVCAR-8 ovarian): 3.85 µM; TGI (OVCAR-8 ovarian): 10.5 µM; GI50 (PC-3 prostate): 2.88 µM; TGI (PC-3 prostate): 6.03 µM; GI50 (RPMI-8226 leukemia): 3.05 µM; TGI (RPMI-8226 leukemia): > 18 µM; GI50 (RXF 393 renal): 0.494 µM; TGI (RXF 393 renal): 1.66 µM; GI50 (SF-268 CNS): 3.09 µM; TGI (SF-268 CNS): 7 µM; GI50 (SF-295 CNS): 2.05 µM; TGI (SF-295 CNS): 4.47 µM; GI50 (SF-539 CNS): 2.3 µM; TGI (SF-539 CNS): 4.57 µM; GI50 (SK-MEL-2 melanoma): 9.87 µM; TGI (SK-MEL-2 melanoma): > 18 µM; GI50 (SK-MEL-28 melanoma): 0.322 µM; TGI (SK-MEL-28 melanoma): 0.582 µM; GI50 (SK-MEL-5 melanoma): 2.05 µM; TGI (SK-MEL-5 melanoma): 4.26 µM; GI50 (SK-OV-3 ovarian): 3.48 µM; TGI (SK-OV-3 ovarian): 7.5 µM; GI50 (SN12C renal): 2.77 µM; TGI (SN12C renal): 5.3 µM; GI50 (SNB-19 CNS): 2.97 µM; TGI (SNB-19 CNS): 5.48 µM; GI50 (SNB-75 CNS): 0.842 µM; TGI (SNB-75 CNS): 3.82 µM; GI50 (SR leukemia): 0.67 µM; TGI (SR leukemia): > 18 µM; GI50 (SW-620 colon): 0.314 µM; TGI (SW-620 colon): 0.621 µM; GI50 (T-47D breast): 3.72 µM; TGI (T-47D breast): > 18 µM; GI50 (TK-10 renal): 3.86 µM; TGI (TK-10 renal): 6.63 µM; GI50 (U251 CNS): 2.7 µM; TGI (U251 CNS): 5.53 µM; GI50 (UACC-257 melanoma): 3.05 µM; TGI (UACC-257 melanoma): 6 µM; GI50 (UACC-62 melanoma): 3.06 µM; TGI (UACC-62 melanoma): 5.66 µM; GI50 (UO-31 renal): 2.71 µM; TGI (UO-31 renal): 5.14 µM
